Measurements: patent publication US11298314B2, “Injectable composition for localized fat reduction without pain, edema, and side effects, and method for preparing same” (AMI PHARM CO., LTD., priority 2017, dated 2022)
“Also recorded” adds a separate entry of the source.

Assays:
paw of the rats = test: Rat paw edema; format: in vivo, Sprague Dawley rats; settings: for degree of edema in words: 2 hours after administration, rat paw; for degree of edema, 1 hour after administration / degree of edema, 2 hours after administration / degree of edema, Immediately after administration: 0.1 ml into rat paw
Procedure, shortened: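 Male Sprague Dawley rats (6 weeks old, 170–200 g) received 0.1 ml of PBS or test composition into the paw. Paw thickness measured by caliper before, immediately after, and 1 or 2 h post-injection; edema graded 0–4, with injection-site skin lesions photographed.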

sole of the rat paws = test: Measurement of skin lesion (erythema) on rat paw; format: in vivo, Sprague Dawley rats; settings: for skin lesion (erythema) in words: 2 hours after administration;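 on grade of skin lesion (erythema), 1 hour after administration: grades − to ++++ mean no to extremely severe erythema versus before injection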;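 on grade of skin lesion (erythema), 2 hours after administration: grades − to ++++ mean no to extremely severe erythema versus before injection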;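 on grade of skin lesion (erythema), Immediately after administration: grades − to ++++ mean no to extremely severe erythema versus before injection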
Procedure, shortened: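 Male Sprague Dawley rats (6 weeks, 170–200 g) received 0.1 ml test composition or PBS injected into the paw. Paw thickness measured by caliper before, immediately after, and 1 or 2 h post-injection; sole lesions photographed and graded 0–4.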

[1] = system: tissues of the injected area (rat paw); test: H&E staining histological test (inflammation) of injected rat paw; format: in vivo, Sprague Dawley rats; settings: for degree of inflammation (H&E) in words: rats sacrificed at 3 hours, injected paw
Method: The tissues of the injected area were dissected, fixed with 10% formalin, and then the specimen was prepared and images were captured using an optical microscope. The degree of inflammation was evaluated as follows.

3T3-L1 adipocytes [2] = test: Adipocyte (3T3-L1) reducing effect, MTT assay; format: cell-based
Method: Tests were performed to compare the adipocyte reducing activity of the PPC single composition and the PPC composition solubilized with bile acids. Differentiated 3T3L-1 adipocyte lines were used to observe adipocyte reduction activity, and cell viability was monitored by MTT assay. […] Materials and methods employed in the following experiments are described below. In the following, % of the composition refers to % (w/v).
The specific test methods are as follows. […] The cells were washed twice with PBS, treated with MTT reagent (50 μl) and left at 37° C. for 2 hours. After removing the supernatant, MTT formazan crystals were dissolved in DMSO and the absorbance was measured at 540 nm using a microplate reader.
The 3T3-L1 adipocyte (ATCC) was cultured in Dulbecco's modified eagle medium (DMEM) (Invitrogen) supplemented with 10% fetal bovine serum, 100 units/ml penicillin and 100 μg/ml streptomycin under the condition of 5% CO2 and 37° C. […] Subsequently, the medium was replaced with DMEM medium containing 1 μg/ml insulin (Sigma), and the culture medium was maintained and changed every 2 to 3 days until the degree of differentiation reaches maximum. If it took more than 7 days, the cells were kept in normal DMEM culture medium until starting the tests. […] After the cells were incubated for 3 hours under the condition of 37° C. and 5% CO2, the MTT solution was removed.

[3] = system: Caspase 3 in 3T3-L1 adipocytes; test: Caspase 3 activity assay; format: cell-based; settings: 0-48 hours
Method: The Caspase 3 activity assay was performed with the test materials to determine whether the cell death in the result of MTT assay was due to necrosis or apoptosis. The Caspase 3 specifically increases when apoptosis occurs and is a marker of apoptosis. […] The cells were then treated with 50 ul of cell lysis buffer (10 mM Tris-HCl, 10 mM NaH2PO4/NaHPO4, pH 7.5, 130 mM NaCl, 1% Triton X-100 and 10 mM sodium pyrophosphate) and left at 4° C. for […]. The supernatant was collected by centrifugation at 1000× rpm for 1 minute, and protein quantification was performed by BCA method. The 50 μl of reaction buffer (4 mM HEPES, pH 7.5, 10% glycerol, 2 mM dithiothreitol) and 0.5 μl of 4 mM DEVD-p-NA were added to each sample and reacted at 37° C. for 1 hour. Then wavelength was measured with a […] at 405 nm.

3T3-L1 adipocytes [4] = test: Lipolysis assay (glycerol release); format: cell-based; settings: 48 hours; listed as GCA single
Method: The glycerol activity assay was performed with the test materials to determine whether the cell death in the MTT assay was due to necrosis or lipolysis. Glycerol is a specific marker that increases when fat breaks down. Abcam Lipolysis Assay Kit (Colorimetric) was used according to the manufacturer's manual, and the method of the test was as follows: […] And then the lysis was induced. […] After adding the glycerol assay complex (50 μl) thereto, the solution was incubated at room temperature for 30 minutes. Absorbance was measured at OD 570 (using standard curve for absolute determination).

inguinal fat pad = settings: 0.2 ml s.c. once into inguinal fat pad, 8 days post-injection
[5] = Formulation stability of PPC injectable preparations: property, transparency, particle size, pH
[6] = bile acid single composition 1.0% (w/v)
[7] = bile acid single composition 2.5% (w/v)
[8] = bile acid single composition 5.0% (w/v)
[9] = bile acid single composition 7.5% (w/v)

C[C@H](CCC(=O)NCC(=O)O)[C@H]1CC[C@H]2[C@@H]3[C@H](O)C[C@@H]4C[C@H](O)CC[C@]4(C)[C@H]3C[C@H](O)[C@]12C [GCA, 2-[[(4R)-4-[(3R,5S,7R,8R,9S,10S,12S,13R,14S,17R)-3,7,12-trihydroxy-10,13-dimethyl-2,3,4,5,6,7,8,9,11,12,14,15,16,17-tetradecahydro-1H-cyclopenta[a]phenanthren-17-yl]pentanoyl]amino]acetic acid]
degree of edema in words (paw of the rats; listed as GCA 1.0%): Mild and mild
degree of edema in words (paw of the rats; listed as GCA 2.5%): moderate
degree of edema in words (paw of the rats; listed as GCA 5.0%): Moderate
degree of edema, 1 hour after administration (paw of the rats; [6]): + (mild edema [+, (the degree of swelling was 1-20% compared to before the injection)])
degree of edema, 2 hours after administration (paw of the rats; [6]): + (mild edema [+, (the degree of swelling was 1-20% compared to before the injection)])
degree of edema, Immediately after administration (paw of the rats; [6]): + (mild edema [+, (the degree of swelling was 1-20% compared to before the injection)])
degree of edema, 1 hour after administration (paw of the rats; [7]): ++ (moderate edema [++, (the degree of swelling was 20-40% compared to before the injection)])
degree of edema, 2 hours after administration (paw of the rats; [7]): ++ (moderate edema [++, (the degree of swelling was 20-40% compared to before the injection)])
degree of edema, Immediately after administration (paw of the rats; [7]): ++ (moderate edema [++, (the degree of swelling was 20-40% compared to before the injection)])
degree of edema, 1 hour after administration (paw of the rats; [8]): ++ (moderate edema [++, (the degree of swelling was 20-40% compared to before the injection)])
degree of edema, 2 hours after administration (paw of the rats; [8]): ++ (moderate edema [++, (the degree of swelling was 20-40% compared to before the injection)])
degree of edema, Immediately after administration (paw of the rats; [8]): ++ (moderate edema [++, (the degree of swelling was 20-40% compared to before the injection)])
degree of edema, 1 hour after administration (paw of the rats; [9]): ++++ (extremely severe edema [++++, (the degree of swelling was 60% or more compared to before the injection)])
degree of edema, 2 hours after administration (paw of the rats; [9]): ++++ (extremely severe edema [++++, (the degree of swelling was 60% or more compared to before the injection)])
degree of edema, Immediately after administration (paw of the rats; [9]): ++ (moderate edema [++, (the degree of swelling was 20-40% compared to before the injection)])
skin lesion (erythema) in words (sole of the rat paws; listed as GCA 1.0%): None
skin lesion (erythema) in words (sole of the rat paws; listed as GCA 2.5%): Mild
skin lesion (erythema) in words (sole of the rat paws; listed as GCA 5.0%): Mild
skin lesion (erythema) in words (sole of the rat paws; listed as GCA 7.5%): Moderate
grade of skin lesion (erythema), 1 hour after administration (sole of the rat paws; [6]): −
grade of skin lesion (erythema), 2 hours after administration (sole of the rat paws; [6]): −
grade of skin lesion (erythema), Immediately after administration (sole of the rat paws; [6]): −
grade of skin lesion (erythema), 1 hour after administration (sole of the rat paws; [7]): +
grade of skin lesion (erythema), 2 hours after administration (sole of the rat paws; [7]): +
grade of skin lesion (erythema), Immediately after administration (sole of the rat paws; [7]): +
grade of skin lesion (erythema), 1 hour after administration (sole of the rat paws; [8]): +
grade of skin lesion (erythema), 2 hours after administration (sole of the rat paws; [8]): +
grade of skin lesion (erythema), Immediately after administration (sole of the rat paws; [8]): +
grade of skin lesion (erythema), 1 hour after administration (sole of the rat paws; [9]): ++
grade of skin lesion (erythema), 2 hours after administration (sole of the rat paws; [9]): ++
grade of skin lesion (erythema), Immediately after administration (sole of the rat paws; [9]): +
Inflammation (H&E), BA % (w/v) 1.0 ([1]; bile acid single composition 1.0% (w/v), injected rat paw): +
Inflammation (H&E), BA % (w/v) 2.5 ([1]; bile acid single composition 2.5% (w/v), injected rat paw): ++
Inflammation (H&E), BA % (w/v) 5.0 ([1]; bile acid single composition 5.0% (w/v), injected rat paw): ++
Inflammation (H&E), BA % (w/v) 7.5 ([1]; bile acid single composition 7.5% (w/v), injected rat paw): ++
degree of inflammation (H&E) in words ([1]; listed as GCA 1.0%): Mild
degree of inflammation (H&E) in words ([1]; listed as GCA 2.5%): moderate
adipocyte viability / adipocyte-reducing activity (3T3-L1 adipocytes [2]; 24 to 96 hours, various concentrations): reduced adipocyte viability in time and concentration dependent manner
adipocyte-reducing effect at the same PPC concentration (3T3-L1 adipocytes [2]; after 96 hours, FIGS. 7F to 7H): lower adipocyte-reducing effect than PPC+GCA
caspase-3 activity [3]: no time or concentration-dependent change
glycerol release / cytolytic activity (3T3-L1 adipocytes [4]): slightly higher cytolytic activity than at 24 hours; also recorded: slightly higher cytolytic activity than that of 24 hours
histological change of adipocytes in fat tissue (inguinal fat pad): clear cell membrane boundary and a well-formed cell shape
inflammation at the site of administration, dermal and epidermal tissues (inguinal fat pad): inflammation was clearly observed
minimum molar ratio to PPC for a clear solution and mixed micelle of 10 nm or less [5]: 0.76
bile acid concentration at which stable injectable preparations can be made ([5]; based on PPC 5.0%): ≥ 2.2%
